From paper PMC3265452 (PLoS Neglected Tropical Diseases, 2012)
Counter-ions that a name gives are not always drawn. Like-named read-outs stand apart in the source and are kept apart here.

Molecular target: AaDOP2 (Aedes aegypti, UniProt H6D5H2)
Test: AaDOP2 antagonist screen of the LOPAC1280 library (HEK-CRELuc-Aadop2 cells, luminescence)
Assay type: cell-based
[1] = 10 µM compound, 300 nM dopamine, 2 hr, hit = compound effect <20

Chain of AaDOP2 (H6D5H2 1-476): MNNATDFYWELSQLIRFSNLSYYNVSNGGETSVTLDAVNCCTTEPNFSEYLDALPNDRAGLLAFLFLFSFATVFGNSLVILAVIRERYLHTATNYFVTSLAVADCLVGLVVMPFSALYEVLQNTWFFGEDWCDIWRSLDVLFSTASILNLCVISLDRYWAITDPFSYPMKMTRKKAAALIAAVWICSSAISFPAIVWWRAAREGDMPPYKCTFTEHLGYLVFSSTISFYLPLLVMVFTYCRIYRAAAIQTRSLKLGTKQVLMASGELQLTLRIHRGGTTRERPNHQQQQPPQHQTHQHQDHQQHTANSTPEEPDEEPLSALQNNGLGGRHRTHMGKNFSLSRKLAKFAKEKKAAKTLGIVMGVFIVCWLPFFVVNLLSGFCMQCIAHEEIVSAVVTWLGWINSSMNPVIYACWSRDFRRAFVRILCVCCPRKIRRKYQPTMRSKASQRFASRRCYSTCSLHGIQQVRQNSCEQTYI

Row | Compound | Compound effect (percent receptor signaling in presence of test compound, relative lux units relative to the SCH23390 control) | Compound effect (percent receptor signaling in presence of test compound, relative lux units relative to the SCH23390 control) [1] [%]
1 | COc1ccc(CCN(C)CCCC(C#N)(c2ccc(OC)c(OC)c2)C(C)C)cc1OC.Cl (racemic) [Compound 1252, (±)-Verapamil hydrochloride] | 117 | –
2 | C=CC(N)CCC(=O)O (racemic) [Compound 1256, (±)-gamma-Vinyl GABA] | – | 108
3 | Cl.OC1CCCCC1N1CCC(c2ccccc2)CC1 (racemic) [Compound 1259, (±)-Vesamicol hydrochloride] | 97 | –
4 | O=C(O)[C@H]1C[C@H](C(=O)O)N1 (relative stereo) [Compound 146, trans-Azetidine-2,4-dicarboxylic acid] | 110 | –
5 | C[C@]12CC[C@H](O)CC1=CC[C@@H]1[C@@H]2CC[C@]2(C)C(=O)CC[C@@H]12 (relative stereo) [Compound 381, trans-Dehydroandrosterone] | 114 | –
6 | CC[C@@H]1Cc2cc(O)ccc2C2=C1c1ccc(O)cc1C[C@H]2CC (relative stereo) [Compound 423, (R,R)-cis-Diethyl tetrahydro-2,8-chrysenediol] | – | 40
7 | C=CCN1CCC2(C)c3cc(O)ccc3CC1C2C.Cl (single isomer, unassigned; (+)) [Compound 123, (+)-N-Allylnormetazocine hydrochloride] | 90 | –
8 | CC1OCC(C[N+](C)(C)C)O1.[I-] (single isomer, unassigned; (+)) [Compound 325, (+)-cis-Dioxolane iodide] | 96 | –
9 | CC1C2Cc3ccc(O)cc3C1(C)CCN2CC1CC1 (single isomer, unassigned; (+)) [Compound 341, (+)-Cyclazocine] | 86 | –
10 | COc1ccc2c(c1OC)C(=O)OC2C1c2cc3c(cc2CCN1C)OCO3 (single isomer, unassigned; (+)) [Compound 605, (+)-Hydrastine] | 122 | –
11 | CC(N)C(O)c1ccc(O)c(O)c1 (single isomer, unassigned; (-)) [Compound 388, (-)-alpha-Methylnorepinephrine] | 88 | –
12 | COc1ccc2c3c1OC1C(=O)CC[C@@]4(O)[C@@H](C2)N(CC2CC2)CC[C@]314.Cl (single isomer, unassigned; (-)) [Compound 836, (-)-3-Methoxynaltrexone hydrochloride] | 75 | –
13 | Nc1ncnc2c1nc(Sc1ccc(Cl)cc1)n2C1OC2COP(=O)(O)O[C@H]2C1O (stereo in doubt) [Compound 251, 8-(4-Chlorophenylthio)-cAMP sodium] | – | 97
14 | NC(=S)c1ccc[n+]([C@@H]2OC(COP(=O)([O-])OP(=O)(O)OC[C@H]3O[C@@H](n4cnc5c(N)ncnc54)[C@H](OP(=O)(O)O)[C@@H]3O)C(O)C2O)c1 (stereo in doubt) [Compound 1183, Thio-NADP sodium] | – | 84
15 | O=C(O)c1ccccc1Nc1ccccc1 [Compound 2, N-Phenylanthranilic acid] | 100 | –
16 | Brc1ccc([C@H]2CN3CCSC3=N2)cc1.O=C(O)C(=O)O [Compound 3, S(-)-p-Bromotetramisole oxalate] | – | 106
17 | Cl.NCCCCC(=O)O [Compound 4, 5-Aminovaleric acid hydrochloride] | 115 | –
18 | O=C(O)CCCCCCCC(=O)O [Compound 6, Azelaic acid] | 107 | –
19 | NCCc1c[nH]c2ccccc12 [Compound 7, Tryptamine hydrochloride] | 121 | –
20 | O=C(O)c1cc2cc(F)ccc2[nH]1 [Compound 8, 5-Fluoroindole-2-carboxylic acid] | 92 | –
21 | COc1ccc2[nH]c3c(c2c1)CCNC3 [Compound 9, 6-Methoxy-1,2,3,4-tetrahydro-9H-pyrido[3,4b] indole] | 116 | –
22 | Nc1nc(SCc2ccc([N+](=O)[O-])cc2)c2ncn([C@@H]3O[C@H](CO)[C@@H](O)[C@H]3O)c2n1 [Compound 10, S-(4-Nitrobenzyl)-6-thioguanosine] | 105 | –
23 | CCN(CC)CCCCCCCCOC(=O)c1cc(OC)c(OC)c(OC)c1.Cl [Compound 11, TMB-8 hydrochloride] | – | 98
24 | Nc1ccncc1 [Compound 12, 4-Aminopyridine] | 110 | –
25 | CN1[C@@H]2CC[C@H]1C[C@@H](OC(=O)C(CO)c1ccccc1)C2 (stereo partly shown) [Compound 13, Atropine sulfate] | 78 | –

Row | Compound | Compound effect (percent receptor signaling in presence of test compound, relative lux units relative to the SCH23390 control) | Compound effect (percent receptor signaling in presence of test compound, relative lux units relative to the SCH23390 control) [1] [%]
26 | C[N+]1(C)[C@@H]2CC[C@H]1C[C@@H](OC(=O)C(CO)c1ccccc1)C2 (stereo partly shown) [Compound 14, Atropine methyl nitrate] | 112 | –
27 | NC(N)=NCCCCN=C(N)N [Compound 15, Arcaine sulfate] | 122 | –
28 | Cl.NC1(C(=O)O)CC1 [Compound 16, 1-Aminocyclopropanecarboxylic acid hydrochloride] | 104 | –
29 | CC(N)=O [Compound 17, Acetamide] | – | 108
30 | Cl.NCCCCNS(=O)(=O)c1ccc2c(Cl)cccc2c1 [Compound 18, N-(4-Aminobutyl)-5-chloro-2-naphthalenesulfonamide hydrochloride] | 97 | –
31 | O=C(O)[C@@H]1CCN1 [Compound 19, L-azetidine-2-carboxylic acid] | 115 | –
32 | Cl.Nc1cc(Cl)c(N=C2NCCN2)c(Cl)c1 [Compound 20, p-Aminoclonidine hydrochloride] | – | 79
33 | NC(=O)c1cccc(N)c1 [Compound 21, 3-aminobenzamide] | 96 | –
34 | Nc1ccc2c3c(cccc13)C(=O)NC2=O [Compound 23, 4-Amino-1,8-naphthalimide] | – | 104
35 | COC(=O)[C@H]1[C@H]2C[C@@H]3c4[nH]c5cc(OC)ccc5c4CCN3C[C@H]2C[C@@H](OC(=O)c2cc(OC)c(OC)c(OC)c2)[C@@H]1OC [Compound 24, Reserpine] | 113 | –
36 | NC12CC3CC(CC(C3)C1)C2 [Compound 25, Amantadine hydrochloride] | 84 | –
37 | Cn1c(=O)c2[nH]cnc2n(C)c1=O.Cn1c(=O)c2[nH]cnc2n(C)c1=O.NCCN [Compound 26, Aminophylline ethylenediamine] | 129 | –
38 | [N-]=[N+]=Nc1ccc(C(=O)CSC[C@H](NC(=O)CC[C@H](N)C(=O)O)C(=O)NCC(=O)O)cc1 [Compound 27, S-(p-Azidophenacyl)glutathione] | – | 105
39 | Nc1nc(N)c2nc(CNc3ccc(C(=O)N[C@@H](CCC(=O)O)C(=O)O)cc3)cnc2n1 [Compound 28, Aminopterin] | 112 | –
40 | CC(=O)NCCc1c[nH]c2ccc(O)cc12 [Compound 29, N-Acetyl-5-hydroxytryptamine] | 110 | –
41 | O=C(O)C1=CC(=C(c2ccc(O)c(C(=O)O)c2)c2ccc(O)c(C(=O)O)c2)C=CC1=O [Compound 30, Aurintricarboxylic acid] | 132 | –
42 | CCCCC/C=C\C/C=C\C/C=C\C/C=C\CCCC(=O)NCC(=O)O [Compound 32, N-arachidonylglycine] | 116 | –
43 | NCCCC(=O)O [Compound 33, GABA] | 102 | –
44 | Cc1cn([C@H]2C[C@H](N=[N+]=[N-])[C@@H](CO)O2)c(=O)[nH]c1=O [Compound 34, 3'-Azido-3'-deoxythymidine] | 114 | –
45 | CC(=O)OC(C)C[N+](C)(C)C.[Cl-] (stereo not drawn) [Compound 35, Acetyl-beta-methylcholine chloride] | 127 | –
46 | Nc1ncn([C@@H]2O[C@H](CO)[C@@H](O)[C@H]2O)c(=O)n1 [Compound 36, 5-azacytidine] | 103 | –
47 | CCN(c1nc(N)c(C(=O)NC(=N)N)nc1Cl)C(C)C [Compound 37, 5-(N-Ethyl-N-isopropyl)amiloride] | 75 | –
48 | N#CCCN.N#CCCN.O=C(O)/C=C/C(=O)O [Compound 38, 3-Aminopropionitrile fumarate] | 100 | –
49 | O=c1cc(-c2ccc(O)cc2)oc2cc(O)cc(O)c12 [Compound 39, Apigenin] | 21 | –
